Key:
Experiment in all cases: Fractional growth, 72 h seliciclib
Assay type in all cases: cell-based, human
SISO = SISO (Cervix), 15 μM seliciclib
Source text: (§1) A total of 270 human cancer cell lines from diverse cancer histopathologic types were investigated.

ESS-1 = ESS-1 (Uterus), 15 μM seliciclib
Source text: as §1

HSC-3 = HSC-3 (Head & Neck), 15 μM seliciclib
Source text: as §1

SNG-M = SNG-M (Uterus), 15 μM seliciclib
Source text: as §1

BFTC-905 = BFTC-905 (Bladder), 15 μM seliciclib
Source text: as §1

NCI-H630 = NCI-H630 (Intestine), 15 μM seliciclib
Source text: as §1

NCI-H1299 = NCI-H1299 (Lung: NSCLC), 15 μM seliciclib
Source text: as §1

Caki-1 = Caki-1 (Kidney), 15 μM seliciclib
Source text: as §1

JHU-019 = JHU-019 (Head & Neck), 15 μM seliciclib
Source text: as §1

5637 = 5637 (Bladder), 15 μM seliciclib
Source text: as §1

JHU-022 = JHU-022 (Head & Neck), 15 μM seliciclib
Source text: as §1

NCI-H1568 = NCI-H1568 (Lung: NSCLC), 15 μM seliciclib
Source text: as §1

1A6 = 1A6 (Bladder), 15 μM seliciclib
Source text: as §1

SW620 = SW620 (Intestine), 15 μM seliciclib
Source text: as §1

SW 13 = SW 13 (Kidney), 15 μM seliciclib
Source text: as §1

RERF-GC-1B = RERF-GC-1B (Stomach), 15 μM seliciclib
Source text: as §1

H4 = H4 (Brain), 15 μM seliciclib
Source text: as §1

LNZTA3WT4 = LNZTA3WT4 (Brain), 15 μM seliciclib
Source text: as §1

MES-SA = MES-SA (Uterus), 15 μM seliciclib
Source text: as §1

NAE = NAE (Skin), 15 μM seliciclib
Source text: as §1

KYSE-410 = KYSE-410 (Esophagus), 15 μM seliciclib
Source text: as §1

NCI-H2170 = NCI-H2170 (Lung: NSCLC), 15 μM seliciclib
Source text: as §1

NCI-H2030 = NCI-H2030 (Lung: NSCLC), 15 μM seliciclib
Source text: as §1

UM-UC-3 = UM-UC-3 (Bladder), 15 μM seliciclib
Source text: as §1

BFTC-909 = BFTC-909 (Kidney), 15 μM seliciclib
Source text: as §1

OE21 = OE21 (Esophagus), 15 μM seliciclib
Source text: as §1

SK-MEL-37 = SK-MEL-37 (Skin), 15 μM seliciclib
Source text: as §1

LU65A = LU65A (Lung: NSCLC), 15 μM seliciclib
Source text: as §1

NCI-H2347 = NCI-H2347 (Lung: NSCLC), 15 μM seliciclib
Source text: as §1

YAPC = YAPC (Pancreas), 15 μM seliciclib
Source text: as §1

SKG-IIIb = SKG-IIIb (Cervix), 15 μM seliciclib
Source text: as §1

HuCCT1 = HuCCT1 (Liver), 15 μM seliciclib
Source text: as §1

H2596 = H2596 (Lung), 15 μM seliciclib
Source text: as §1

PCI-30 = PCI-30 (Head & Neck), 15 μM seliciclib
Source text: as §1

AN3CA = AN3CA (Uterus), 15 μM seliciclib
Source text: as §1

CAL-62 = CAL-62 (Thyroid), 15 μM seliciclib
Source text: as §1

HT 1080 = HT 1080 (Miscellaneous), 15 μM seliciclib
Source text: as §1

Compound: CC[C@H](CO)Nc1nc(NCc2ccccc2)c2ncn(C(C)C)c2n1 [seliciclib, roscovitine]
- Fractional Growth (SISO): 0.6424
- Fractional Growth (ESS-1): 0.4399
- Fractional Growth (HSC-3): 0.5223
- Fractional Growth (SNG-M): 0.3393
- Fractional Growth (BFTC-905): 0.4198
- Fractional Growth (NCI-H630): 0.7543
- Fractional Growth (NCI-H1299): 0.3352
- Fractional Growth (Caki-1): 0.3885
- Fractional Growth (JHU-019): 0.4229
- Fractional Growth 5637: 0.6151
- Fractional Growth (JHU-022): 0.6294
- Fractional Growth (NCI-H1568): 0.3317
- Fractional Growth (1A6): 0.6475
- Fractional Growth (SW620): 0.7486
- Fractional Growth (SW 13): 0.5624
- Fractional Growth (RERF-GC-1B): 0.6411
- Fractional Growth (H4): 0.9708
- Fractional Growth (LNZTA3WT4): 0.6936
- Fractional Growth (MES-SA): 0.3922
- Fractional Growth (NAE): 0.3413
- Fractional Growth (KYSE-410): 0.4693
- Fractional Growth (NCI-H2170): 0.4534
- Fractional Growth (NCI-H2030): 0.3063
- Fractional Growth (UM-UC-3): 0.3538
- Fractional Growth (BFTC-909): 0.7132
- Fractional Growth (OE21): 0.4083
- Fractional Growth (SK-MEL-37): 0.5209
- Fractional Growth (LU65A): 0.4627
- Fractional Growth (NCI-H2347): 0.3299
- Fractional Growth (YAPC): 0.588
- Fractional Growth (SKG-IIIb): 0.6636
- Fractional Growth (HuCCT1): 0.4559
- Fractional Growth (H2596): 0.7486
- Fractional Growth (PCI-30): 0.5541
- Fractional Growth (AN3CA): 0.2094
- Fractional Growth (CAL-62): 0.3139
- Fractional Growth (HT 1080): 0.2044
